test system: recombinant NL4-3 virus (Renilla luciferase, Gag P373S); test: HIV cell culture assay (luciferase reporter, MT-2 cells); assay type: cell-based; conditions: MT-2 cells infected for 4-5 days with NLRluc recombinants; luciferase activity
Protocol: MT-2 cells and 293T cells were obtained from the NIH AIDS Research and Reference Reagent Program. MT-2 cells were propagated in RPMI 1640 media supplemented with 10% heat inactivated fetal bovine serum, […]. The 293T cells were propagated in DMEM media supplemented with 10% heat inactivated fetal bovine serum (FBS), 100 units/ml penicillin G and 100 μg/ml streptomycin. The proviral DNA clone of NL4-3 was obtained from the NIH AIDS Research and Reference Reagent Program. A recombinant NL4-3 virus, in which a section of the nef gene from NL4-3 was replaced with the Renilla luciferase gene, was used as a reference virus. In addition, residue Gag P373 was converted to P373S. Briefly, the recombinant virus was prepared by transfection of the altered proviral clone of NL4-3. Transfections were performed in 293T cells using LipofectAMINE PLUS from Invitrogen (Carlsbad, Calif.), according to manufacturer's instruction. The virus was titered in MT-2 cells using luciferase enzyme activity as a marker. Luciferase was quantitated using the Dual Luciferase kit from Promega (Madison, Wis.), with modifications to the manufacturer's protocol. The diluted Passive Lysis solution was pre-mixed with the re-suspended Luciferase Assay Reagent and the re-suspended Stop & Glo Substrate (2:1:1 ratio). Fifty (50) μL of the mixture was added to each aspirated well on assay plates and luciferase activity was measured immediately on a Wallac TriLux (Perkin-Elmer). Antiviral activities of inhibitors toward the recombinant virus were quantified by measuring luciferase activity in cells infected for 4-5 days with NLRluc recombinants in the presence serial dilutions of the inhibitor.

Compound	EC50
C=C(C)[C@@H]1CC[C@]2(NCCN3CCS(=O)(=O)CC3)CC[C@]3(C)[C@H](CC[C@@H]4[C@@]5(C)CC=C(C6=CC(C(=O)O)C(C(=O)O)C6)C(C)(C)[C@@H]5CC[C@]43C)[C@@H]12 (single isomer, unassigned) [Example A20]	60 nM
C=C(C)[C@@H]1CC[C@]2(NCCN3CCC(S(C)(=O)=O)CC3)CC[C@]3(C)[C@H](CC[C@@H]4[C@@]5(C)CC=C(C6=CC7C(C6)C7C(=O)O)C(C)(C)[C@@H]5CC[C@]43C)[C@@H]12 (single isomer, unassigned) [Example A28]	0.658 nM

same assay, conditions: Renilla, NL43, MT-2 cells infected for 4-5 days with NLRluc recombinants; luciferase activity

Compound	EC50
C=C(C)[C@@H]1CC[C@]2(NCCN3CCC(S(C)(=O)=O)CC3)CC[C@]3(C)[C@H](CC[C@@H]4[C@@]5(C)CC=C(C6=CCC(C#N)(C(=O)O)CC6)C(C)(C)[C@@H]5CC[C@]43C)[C@@H]12 (mixture of isomers) [Example A6, 1-cyano-4-((1R,3aS,5aR,5bR,7aR,11aS,11bR,13aR,13bR)-5a,5b,8,8,11a-pentamethyl-3a-((2-(4-(methylsulfonyl)piperidin-1-yl)ethyl)amino)-1-(prop-1-en-2-yl)-2,3,3a,4,5,5a,5b,6,7,7a,8,11,11a,11b,12,13,13a,13b-octadecahydro-1H-cyclopenta[a]chrysen-9-yl)cyclohex-3-enecarboxylic acid]	6.18 nM
C=C(C)[C@@H]1CC[C@]2(NCCN3CCC(S(C)(=O)=O)CC3)CC[C@]3(C)[C@H](CC[C@@H]4[C@@]5(C)CC=C(C6=CCC(Cl)(C(=O)O)CC6)C(C)(C)[C@@H]5CC[C@]43C)[C@@H]12 (mixture of isomers) [Example A8, 1-chloro-4-((1R,3aS,5aR,5bR,7aR,11aS,11bR,13aR,13bR)-5a,5b,8,8,11a-pentamethyl-3a-((2-(4-(methylsulfonyl)piperidin-1-yl)ethyl)amino)-1-(prop-1-en-2-yl)-2,3,3a,4,5,5a,5b,6,7,7a,8,11,11a,11b,12,13,13a,13b-octadecahydro-1H-cyclopenta[a]chrysen-9-yl)cyclohex-3-enecarboxylic acid]	2.42 nM
C=C(C)[C@@H]1CC[C@]2(NCCN3CCC(S(C)(=O)=O)CC3)CC[C@]3(C)[C@H](CC[C@@H]4[C@@]5(C)CC=C(C6=CCC(CCO)(C(=O)O)CC6)C(C)(C)[C@@H]5CC[C@]43C)[C@@H]12 (mixture of isomers) [Example A11]	2.65 nM
C=C(C)[C@@H]1CC[C@]2(NCCN3CCC(S(C)(=O)=O)CC3)CC[C@]3(C)[C@H](CC[C@@H]4[C@@]5(C)CC=C(C6=CCC(CO)(C(=O)O)CC6)C(C)(C)[C@@H]5CC[C@]43C)[C@@H]12 (mixture of isomers) [Example A13, 1-(hydroxymethyl)-4-((1R,3aS,5aR,5bR,7aR,11aS,11bR,13aR,13bR)-5a,5b,8,8,11a-pentamethyl-3a-((2-(4-(methylsulfonyl)piperidin-1-yl)ethyl)amino)-1-(prop-1-en-2-yl)-2,3,3a,4,5,5a,5b,6,7,7a,8,11,11a,11b,12,13,13a,13b-octadecahydro-1H-cyclopenta[a]chrysen-9-yl)cyclohex-3-enecarboxylic acid]	0.301 nM
C=C(C)[C@@H]1CC[C@]2(NCCN3CCS(=O)(=O)CC3)CC[C@]3(C)[C@H](CC[C@@H]4[C@@]5(C)CC=C(C6=CC(CC(=O)O)CC6)C(C)(C)[C@@H]5CC[C@]43C)[C@@H]12 (mixture of isomers) [Example A15]	0.547 nM
C=C(C)[C@@H]1CC[C@]2(NCCN3CCS(=O)(=O)CC3)CC[C@]3(C)[C@H](CC[C@@H]4[C@@]5(C)CC=C(C6=CC7C(C6)C7C(=O)O)C(C)(C)[C@@H]5CC[C@]43C)[C@@H]12 (mixture of isomers) [Example A18, 3-((1R,3aS,5aR,5bR,7aR,11aS,11bR,13aR,13bR)-3a-((2-(1,1-dioxidothiomorpholino)ethyl)amino)-5a,5b,8,8,11a-pentamethyl-1-(prop-1-en-2-yl)-2,3,3a,4,5,5a,5b,6,7,7a,8,11,11a,11b,12,13,13a,13b-octadecahydro-1H-cyclopenta[a]chrysen-9-yl)bicyclo[3.1.0]hex-2-ene-6-carboxylic acid]	2.26 nM
C=C(C)[C@@H]1CC[C@]2(NCCN3CCC(S(C)(=O)=O)CC3)CC[C@]3(C)[C@H](CC[C@@H]4[C@@]5(C)CC=C(C6=CCC(NC(C)=O)(C(=O)O)CC6)C(C)(C)[C@@H]5CC[C@]43C)[C@@H]12 (mixture of isomers) [Example A32, 1-acetamido-4-((1R,3aS,5aR,5bR,7aR,11aS,11bR,13aR,13bR)-5a,5b,8,8,11a-pentamethyl-3a-((2-(4-(methylsulfonyl)piperidin-1-yl)ethyl)amino)-1-(prop-1-en-2-yl)-2,3,3a,4,5,5a,5b,6,7,7a,8,11,11a,11b,12,13,13a,13b-octadecahydro-1H-cyclopenta[a]chrysen-9-yl)cyclohex-3-enecarboxylic acid]	1.5 nM
C=C(C)[C@@H]1CC[C@]2(NCCN3CCC(S(C)(=O)=O)CC3)CC[C@]3(C)[C@H](CC[C@@H]4[C@@]5(C)CC=C(C6=CCC(CC(=O)O)CC6)C(C)(C)[C@@H]5CC[C@]43C)[C@@H]12 (mixture of isomers) [Example A33, 2-(4-((1R,3aS,5aR,5bR,7aR,11aS,11bR,13aR,13bR)-5a,5b,8,8,11a-pentamethyl-3a-((2-(4-(methylsulfonyl)piperidin-1-yl)ethyl)amino)-1-(prop-1-en-2-yl)-2,3,3a,4,5,5a,5b,6,7,7a,8,11,11a,11b,12,13,13a,13b-octadecahydro-1H-cyclopenta[a]chrysen-9-yl)cyclohex-3-en-1-yl)acetic acid]	570 nM
C=C(C)[C@@H]1CC[C@]2(NCCN3CCS(=O)(=O)CC3)CC[C@]3(C)[C@H](CC[C@@H]4[C@@]5(C)CC=C(C6=CC(C(=O)O)C(C(=O)O)C6)C(C)(C)[C@@H]5CC[C@]43C)[C@@H]12 (single isomer, unassigned) [Example A19]	100 nM
C=C(C)[C@@H]1CC[C@]2(NCCN3CCS(=O)(=O)CC3)CC[C@]3(C)[C@H](CC[C@@H]4[C@@]5(C)CC=C(C6=CC(C(F)(F)C(=O)O)CC6)C(C)(C)[C@@H]5CC[C@]43C)[C@@H]12 (single isomer, unassigned) [Example A23]	5.63 nM
C=C(C)[C@@H]1CC[C@]2(NCCN3CCS(=O)(=O)CC3)CC[C@]3(C)[C@H](CC[C@@H]4[C@@]5(C)CC=C(C6=CCC(C(F)(F)C(=O)O)C6)C(C)(C)[C@@H]5CC[C@]43C)[C@@H]12 (single isomer, unassigned) [Example A24]	4.65 nM
C=C(C)[C@@H]1CC[C@]2(NCCN3CCS(=O)(=O)CC3)CC[C@]3(C)[C@H](CC[C@@H]4[C@@]5(C)CC=C(C6=CC7C(C6)C7C(=O)O)C(C)(C)[C@@H]5CC[C@]43C)[C@@H]12 (single isomer, unassigned) [Example A26]	0.941 nM
C=C(C)[C@@H]1CC[C@]2(NCCN3CCC(S(C)(=O)=O)CC3)CC[C@]3(C)[C@H](CC[C@@H]4[C@@]5(C)CC=C(C6=CC7C(C6)C7C(=O)O)C(C)(C)[C@@H]5CC[C@]43C)[C@@H]12 (single isomer, unassigned) [Example A27]	0.921 nM

Source: US8906889B2, “C-3 cycloalkenyl triterpenoids with HIV maturation inhibitory activity” (priority 2012, dated 2014)
